Experimental data published in patent EP0459830A1, “Pharmacologically active CNS compounds” (THE WELLCOME FOUNDATION LIMITED, priority 1990, dated 1991).

Key:
Rat Liver DHFR = target: T1, Rat Liver DHFR (Rattus norvegicus, UniProt Q920D2); test: inhibition of DHFR activity; assay type: biochemical; settings: rat liver DHFR enzyme activity; read-out: IC50(μM) Rat Liver DHFR (P95 limits)
T1 construct: from tissue; host or cells: rat liver
T1 sequence (Q920D2 1-187): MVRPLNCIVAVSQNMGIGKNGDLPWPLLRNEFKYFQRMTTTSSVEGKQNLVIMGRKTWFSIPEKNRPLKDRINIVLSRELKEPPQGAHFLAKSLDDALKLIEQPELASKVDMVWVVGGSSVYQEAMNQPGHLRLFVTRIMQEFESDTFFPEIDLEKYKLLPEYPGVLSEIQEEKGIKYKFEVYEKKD
Procedure: (§1) Compounds of formula (Ia) were tested for their effect on veratrine-evoked release of glutamate from rat brain slices according to the protocol described in Epilepsia 27(5): 490-497, 1986. The protocol for testing for inhibition of DHFR activity was a modification of that set out in Biochemical Pharmacology Vol.20 pp 561-574, 1971.
(§2) The results are given in Table 1, the IC₅₀ being the concentration of compound to […] 50% of DHFR enzyme activity.

[1] = test system: veratrine-evoked release of glutamate from rat brain slices; test: veratrine-evoked release of glutamate from rat brain slices; assay type: cell-based; settings: read-out: IC50(μM) Glutamate Release (P95 limits)
Procedure: as §1, §2

[2] = test system: release of the excitatory amino acids, glutamate and aspartate; settings: Leach et al Epilepsia 27, 490-497 1986; Miller et al 1987; cited from earlier work

SMILES | IC50 (Rat Liver DHFR) [µM] | IC50 [1] [µM] | inhibition of release of glutamate and aspartate [2]
Cc1c(N)nc(N)nc1-c1ccc(Cl)cc1 [*, 2,4-Diamino-5-methyl-6-(4-chlorophenyl)pyrimidine] | > 55 | > 10 | –
Nc1cc(-c2cccc(Cl)c2Cl)nc(N)n1 [Example 1, 2,4-Diamino-6-(2,3-dichlorophenyl)pyrimidine] | < 100 | 10 | –
Nc1cc(-c2ccccc2Cl)nc(N)n1 [Example 2, 2,4-Diamino-6-(2-chlorophenyl)pyrimidine] | > 100 | 10 | –
Nc1cc(-c2ccc(Cl)cc2Cl)nc(N)n1 [Example 3, 2,4-Diamino-6-(2,4-Dichlorophenyl)pyrimidine] | < 100 | > 10 | –
Nc1cc(-c2cccc3ccccc23)nc(N)n1 [Example 4, 2,4-Diamino-6-(1-naphthyl)pyrimidine] | 100 | > 10 | –
Nc1nnc(-c2cccc(Cl)c2Cl)c(N)n1 [lamotrigine, 3,5-diamino-6-(2,3-dichlorophenyl)-1,2,4-triazine] | – | – | inhibit the release of the excitatory amino acids, glutamate and aspartate
